Measured values taken from US20240139188A1, “Arylamide Compounds For Treatment And Prevention Of Fungal Infections” (priority 2022, published 2024).
Converted amounts (≈) assume the structure as drawn. Like-named read-outs stand apart in the source and are kept apart here.

How the values were obtained:
A. fumigatus = assay: Alamar blue metabolic activity assay; assay type: cell-based, Aspergillus fumigatus; details: ΔmpkA mutant, BRI 20 μM, 48 hours
[1] = tested on: A. fumigatus cell membrane potential; assay: Membrane potential determination, DiBAC4(3); assay type: cell-based, Aspergillus fumigatus; details: 30 minutes
Description: Membrane potential determination: […] Biotechnol., 2021, 14, 262-276) with modifications. […] After, the germlings were washed with sterile PBS (140 mM NaCl, 2 mM KCl, 10 mM NaHPO4, 1.8 mM KH2PO4, pH 7.4). The fluorescence was analyzed with excitation wavelength of 450-490 nm, and emission wavelength of 525-550 nm on the Observer Z1 fluorescence microscope (Carl Zeiss) using the 100× with Differential interference contrast (DIC) images. Fluorescent images were captured with an AxioCam camera (Carl Zeiss, Inc.) and processed using the Axio Vision software (version 4.8).

Lomentospora prolificans = assay: In vitro susceptibility (MIC), macrobroth dilution; assay type: cell-based
Mucorales Mucor species = assay: In vitro susceptibility (MIC), macrobroth dilution; assay type: cell-based; details: Mucor
[2] = tested on: Mucorales Unspeciated zygomycete; assay: In vitro susceptibility (MIC), macrobroth dilution; assay type: cell-based; details: Mucorales Unspeciated zygomycete 07-140
Candida albicans = assay: In vitro susceptibility (MIC), macrobroth dilution; assay type: cell-based; details: Candida albicans, C. albicans 5, drug alone
Candida auris = assay: In vitro susceptibility (MIC), macrobroth dilution; assay type: cell-based; details: Candidozyma auris, Candida auris 20-253
Candida krusei = assay: In vitro susceptibility (MIC), macrobroth dilution; assay type: cell-based; details: Pichia kudriavzevii, Candida krusei 03-287 (fluconazole-resistant)
Candida lusitaniae = assay: In vitro susceptibility (MIC), macrobroth dilution; assay type: cell-based; details: Clavispora lusitaniae, Candida lusitaniae 22-16
Torulopsis glabrata = assay: In vitro susceptibility (MIC), macrobroth dilution; assay type: cell-based; details: Nakaseomyces glabratus, Torulopsis glabrata 22-21
Acremonium species = assay: In vitro susceptibility (MIC), macrobroth dilution; assay type: cell-based; details: Acremonium species 18-51
Exserohilum species = assay: In vitro susceptibility (MIC), macrobroth dilution; assay type: cell-based; details: Exserohilum species 19-48
Aspergillus niger = assay: In vitro susceptibility (MIC), macrobroth dilution; assay type: cell-based; details: Aspergillus niger 22-4
Aspergillus lentulus = assay: In vitro susceptibility (MIC), macrobroth dilution; assay type: cell-based; details: Aspergillus lentulus 14-39
Aspergillus terreus = assay: In vitro susceptibility (MIC), macrobroth dilution; assay type: cell-based; details: Aspergillus terreus 12-70
Aspergillus fumigatus = assay: In vitro susceptibility (MIC), macrobroth dilution; assay type: cell-based; details: for MIC50 / MIC: Aspergillus fumigatus
[3] = tested on: critical fungal pathogens; assay: Checkerboard drug interaction testing (FICi), BRI with conventional antifungals; assay type: cell-based; details: organisms tested, with the exception of Aspergillus
C. albicans [4] = assay: BRI+CAS against yeasts, colony forming units; details: plating after 48 hours
Description: (§1) Combination of Brilacidin and caspofungin against yeasts: For measuring the effect of the combination BRI+CAS against yeast fungal pathogens, two methods were used: (i) metabolic activity by XTT-assay and (ii) colony forming units (CFUs). For the first method, C. neoformans, C. albicans, and C. auris 10^4 cells were inoculated in RPMI-1640 supplemented with CAS 0 to 32 μg/ml (for C. neoformans) and 0 to 1 μg/ml (for Candida spp.) or the same concentrations of CAS combined with BRI 0.625 μM (for C. neoformans), BRI 20 μM (for C. albicans), and BRI 10 μM (for C. auris). […] XTT-assays were also used for C. albicans caspofungin resistant strains but with CAS 0.5 μg/ml combined with BRI 5, 10 or 20 μM. The same experimental design was used for the CFUs determination, except that after 48 hours the cells present in the wells were plated on YPD (yeast extract 10g, peptone 20g, dextrose 20g, agar 20 g, water 1000 mL) and the plates were incubated at 30° C. for 24-48 hours for determining the survival percentage.

C. auris = assay: BRI+CAS against yeasts, colony forming units; details: plating after 48 hours
Description: as §1

[5] = tested on: A. fumigatus conidia infecting A549 pulmonary cells; assay: Killing assay in infected A549 cells; assay type: cell-based, Aspergillus fumigatus; details: monotherapy
Description: Killing assay: The type II pneumocyte cell line A549 was cultured using DMEM (ThermoFischer Scientific, Paisley. […] After 24 hours of incubation in 5% CO2 the culture media was removed, and 2 ml of sterile water was added to the wells. A P1000 tip was then used to scrape away the cell monolayer and the cell suspension was collected. This suspension was then diluted 1:1000 and 100 μl was plated on Sabouraud Dextrose Agar Media before the plates were incubated a 37° C. overnight. The numbers of CFUs were determined after 24 hours of growth. A volume of 50 μl of the inoculum adjusted to 103/ml was also plated on SAB agar to correct CFU counts. The CFU percentage for each sample was calculated and the results were plotted using Graphpad Prism (GraphPad Software, Inc., La Jolla, CA, USA).

C. neoformans = assay: BRI+CAS against yeasts, XTT metabolic activity; details: CAS alone, 48 hours
C. albicans [6] = assay: BRI+CAS against yeasts, XTT metabolic activity; details: absence of BRI
[7] = read-out: 50% Inhibition BRI (MIC50)
[8] = read-out: 100% Inhibition BRI (MIC100)

N=C(N)NCCCCC(=O)Nc1cc(C(F)(F)F)cc(NC(=O)c2cc(C(=O)Nc3cc(C(F)(F)F)cc(NC(=O)CCCCNC(=N)N)c3OC3CCNC3)ncn2)c1OC1CCNC1 (stereo not drawn) [BRI, brilacidin]
metabolic activity (Alamar blue) in presence vs absence of BRI (A. fumigatus): significantly decreased metabolic activity | fluorescent germlings (membrane depolarization) ([1]; BRI 1 μM): 5% | MIC50 (Lomentospora prolificans; [7]): 4 µg/mL (≈ 4.27 µM) | MIC (Lomentospora prolificans; [8]): 8 µg/mL (≈ 8.54 µM) | MIC50 (Mucorales Mucor species; Mucor sp. 13-127, drug alone, lowest concentration causing 50% decrease in growth vs untreated control, read-out: MIC50): 4 µg/mL (≈ 4.27 µM) | MIC (Mucorales Mucor species; Mucor sp. 13-127, drug alone, lowest concentration without growth, read-out: MIC100): 64 µg/mL (≈ 68.3 µM) | MIC (Mucorales Mucor species; Mucorales Mucor species, read-out: 100% Inhibition BRI (MIC100)): 32 µg/mL (≈ 34.2 µM) | MIC50 [2, 7]: 2 µg/mL (≈ 2.13 µM) | MIC [2, 8]: 16 µg/mL (≈ 17.1 µM) | MIC50 (Candida albicans; lowest concentration causing 50% decrease in growth vs untreated control, read-out: MIC50): 4 µg/mL (≈ 4.27 µM) | MIC (Candida albicans; lowest concentration without growth, read-out: MIC100): > 64 µg/mL | MIC50 (Candida auris; [7]): > 64 µg/mL | MIC (Candida auris; [8]): > 64 µg/mL | MIC50 (Candida krusei; [7]): 8 µg/mL (≈ 8.54 µM) | MIC (Candida krusei; [8]): 16 µg/mL (≈ 17.1 µM) | MIC50 (Candida lusitaniae; [7]): 8 µg/mL (≈ 8.54 µM) | MIC (Candida lusitaniae; [8]): 8 µg/mL (≈ 8.54 µM) | MIC50 (Torulopsis glabrata; [7]): 64 µg/mL (≈ 68.3 µM) | MIC (Torulopsis glabrata; [8]): > 64 µg/mL | MIC50 (Acremonium species; [7]): 4 µg/mL (≈ 4.27 µM) | MIC (Acremonium species; [8]): > 64 µg/mL | MIC50 (Exserohilum species; [7]): 1 µg/mL (≈ 1.07 µM) | MIC (Exserohilum species; [8]): 16 µg/mL (≈ 17.1 µM) | MIC50 (Aspergillus niger; [7]): 8 µg/mL (≈ 8.54 µM) | MIC (Aspergillus niger; [8]): 16 µg/mL (≈ 17.1 µM) | MIC50 (Aspergillus lentulus; [7]): 32 µg/mL (≈ 34.2 µM) | MIC (Aspergillus lentulus; [8]): > 64 µg/mL | MIC50 (Aspergillus terreus; [7]): > 64 µg/mL | MIC (Aspergillus terreus; [8]): > 64 µg/mL | MIC100 (Aspergillus fumigatus; A. fumigatus 21-23, drug alone, lowest concentration without growth): >64 µg/mL | MIC50 (Aspergillus fumigatus; A. fumigatus 10AF, drug alone, lowest concentration causing 50% decrease in growth vs untreated control, read-out: MIC50): 64 µg/mL (≈ 68.3 µM) | MIC50 (Aspergillus fumigatus; A. fumigatus 21-23, drug alone, lowest concentration causing 50% decrease in growth vs untreated control, read-out: MIC50): 64 µg/mL (≈ 68.3 µM) | MIC (Aspergillus fumigatus; A. fumigatus 10AF, drug alone, lowest concentration without growth, read-out: MIC100): > 64 µg/mL | MIC50 (Aspergillus fumigatus; [7]): > 64 µg/mL | MIC (Aspergillus fumigatus; [8]): > 64 µg/mL | in vitro activity of BRI alone [3]: favorable in vitro activity | Mechanism (C. albicans [4]; Candida albicans DPL1006 CAS^R): Fungicidal | Mechanism (C. albicans [4]; Candida albicans DPL1007 CAS^R): Fungicidal | Mechanism (C. albicans [4]; Candida albicans DPL1009 CAS^R): Fungicidal | Mechanism (C. albicans [4]; Candida albicans DPL1010 CAS^R): Fungicidal | Mechanism (C. albicans [4]; Candida albicans DPL1011 CAS^R): Fungicidal | Mechanism (C. albicans [4]; Candida albicans SC5314): Fungicidal | Mechanism (C. auris; Candida auris 467/2015): Fungicidal | Mechanism (C. auris; Candida auris 468/2015): Fungicidal | Mechanism (C. auris; Candida auris 469/2015): Fungicidal | Mechanism (C. auris; Candida auris 470/2015): Fungicidal | Mechanism (C. auris; Candida auris 471/2015): Fungicidal

CC[C@H](C)C[C@H](C)CCCCCCCCC(=O)N[C@H]1C[C@@H](O)[C@@H](NCCN)NC(=O)[C@@H]2[C@@H](O)CCN2C(=O)[C@H]([C@H](O)CCN)NC(=O)[C@H]([C@H](O)[C@@H](O)c2ccc(O)cc2)NC(=O)[C@@H]2C[C@@H](O)CN2C(=O)[C@H]([C@@H](C)O)NC1=O [CAS, caspofungin]
fluorescent germlings (membrane depolarization) ([1]; CAS 0.125 μg/ml): ~25% | A. fumigatus killing [5]: 25% | CAS concentration that completely inhibits metabolic activity (XTT) (C. neoformans): 32 µg/mL | CAS concentration for complete inhibition of metabolic activity (XTT) and survival (CFUs) (C. albicans [6]): ~0.125 µg/mL
